Experimental data taken from patent publication US20220081444A1, “6,7-DIHYDRO-4H-PYRAZOLO[1,5-A]PYRAZINE INDOLE-2-CARBOXAMIDES ACTIVE AGAINST THE HEPATITIS B VIRUS (HBV)” (AiCuris GmbH & Co. KG, priority 2018, published 2022).
Where a name gives a salt, the structure may show the parent alone.

Test system: HBV
Settings: Hepatitis B virus, HePAD38, 144 h, read-out: Cell Activity (EC50)

## CC(C)S(=O)(=O)Nc1cc2n(n1)CCN(C(=O)c1cc3ccccc3[nH]1)C2 [Example 47, N-[5-(1H-indole-2-carbonyl)-4H,5H,6H,7H-pyrazolo[1,5-a]pyrazin-2-yl]propane-2-sulfonamide]
  EC50: < 1000 nM

## O=C(c1cc2ccccc2[nH]1)N1CCn2nc(N[C@H]3C[C@@H](O)C3)cc2C1 [Example 91, (1s,3s)-3-{[5-(1H-indole-2-carbonyl)-4H,5H,6H,7H-pyrazolo[1,5-a]pyrazin-2-yl]amino}cyclobutan-1-ol]
  EC50: < 1000 nM

## CCc1cc(F)cc2[nH]c(C(=O)N3CCn4nc(NS(=O)(=O)C5CC5)cc4C3)cc12 [Example 39, N-[5-(4-ethyl-6-fluoro-1H-indole-2-carbonyl)-4H,5H,6H,7H-pyrazolo[1,5-a]pyrazin-2-yl]cyclopropanesulfonamide]
  EC50: < 1000 nM

## O=C(c1cc2c(Cl)cc(F)cc2[nH]1)N1CCn2nc(NS(=O)(=O)C3CC3)cc2C1 [Example 38, N-[5-(4-chloro-6-fluoro-1H-indole-2-carbonyl)-4H,5H,6H,7H-pyrazolo[1,5-a]pyrazin-2-yl]cyclopropanesulfonamide]
  EC50: < 1000 nM

## O=C(c1cc2ccccc2[nH]1)N1CCn2nc(N[C@H]3CC[C@H](O)CC3)cc2C1 [Example 2, (1r,4r)-4-{[5-(1H-indole-2-carbonyl)-4H,5H,6H,7H-pyrazolo[1,5-a]pyrazin-2-yl]amino}cyclohexan-1-ol]
  EC50: < 1000 nM

## O=C(c1cc2c(Cl)cccc2[nH]1)N1CCn2nc(NS(=O)(=O)C3CC3)cc2C1 [Example 37, N-[5-(4-chloro-1H-indole-2-carbonyl)-4H,5H,6H,7H-pyrazolo[1,5-a]pyrazin-2-yl]cyclopropanesulfonamide]
  EC50: < 1000 nM

## O=C(c1cc2ccccc2[nH]1)N1CCn2nc(NS(=O)(=O)c3cccnc3)cc2C1 [Example 50, N-[5-(1H-indole-2-carbonyl)-4H,5H,6H,7H-pyrazolo[1,5-a]pyrazin-2-yl]pyridine-3-sulfonamide]
  EC50: < 1000 nM

## O=C(Nc1cc2n(n1)CCN(C(=O)c1cc3ccccc3[nH]1)C2)C1CCNCC1(F)F (stereo not shown) [Example 73, 3,3-difluoro-N-[5-(1H-indole-2-carbonyl)-4H,5H,6H,7H-pyrazolo[1,5-a]pyrazin-2-yl]piperidine-4-carboxamide]
  EC50: < 1000 nM

## O=C(c1cc2ccccc2[nH]1)N1CCn2nc(N[C@H]3C[C@H](O)C3)cc2C1 [Example 76, (1r,3r)-3-{[5-(1H-indole-2-carbonyl)-4H,5H,6H,7H-pyrazolo[1,5-a]pyrazin-2-yl]amino}cyclobutan-1-ol]
  EC50: < 1000 nM

## CC1Cn2nc(NCC3CCOC3)cc2CN1C(=O)c1cc2ccccc2[nH]1 (stereo not shown) [Example 12, 5-(1H-indole-2-carbonyl)-6-methyl-N-[(oxolan-3-yl)methyl]-4H,5H,6H,7H-pyrazolo[1,5-a]pyrazin-2-amine]
  EC50: < 1000 nM

## CC1Cn2nc(NCC3CCOC3)cc2CN1C(=O)c1cc2c(Cl)cccc2[nH]1 (stereo not shown) [Example 13, 5-(4-chloro-1H-indole-2-carbonyl)-6-methyl-N-[(oxolan-3-yl)methyl]-4H,5H,6H,7H-pyrazolo[1,5-a]pyrazin-2-amine]
  EC50: < 1000 nM

## O=C(c1cc2ccccc2[nH]1)N1CCn2nc(N[C@H]3CCC[C@@H](O)C3)cc2C1 [Example 77, (1R,3S)-3-{[5-(1H-indole-2-carbonyl)-4H,5H,6H,7H-pyrazolo[1,5-a]pyrazin-2-yl]amino}cyclohexan-1-ol]
  EC50: < 1000 nM

## CC1Cn2nc(NC(=O)C3CCOC3)cc2CN1C(=O)c1cc2c(Cl)cccc2[nH]1 (stereo not shown) [Example 11, N-[5-(4-chloro-1H-indole-2-carbonyl)-6-methyl-4H,5H,6H,7H-pyrazolo[1,5-a]pyrazin-2-yl]oxolane-3-carboxamide]
  EC50: < 1000 nM

## CCc1cccc2[nH]c(C(=O)N3CCn4nc(NC(=O)C5CCOC5)cc4C3)cc12 (stereo not shown) [Example 24, N-[5-(4-ethyl-1H-indole-2-carbonyl)-4H,5H,6H,7H-pyrazolo[1,5-a]pyrazin-2-yl]oxolane-3-carboxamide]
  EC50: < 1000 nM

## CN1CCC(C(=O)Nc2cc3n(n2)CCN(C(=O)c2cc4ccccc4[nH]2)C3)C(F)C1 (stereo not shown) [Example 88, 3-fluoro-N-[5-(1H-indole-2-carbonyl)-4H,5H,6H,7H-pyrazolo[1,5-a]pyrazin-2-yl]-1-methylpiperidine-4-carboxamide]
  EC50: < 1000 nM

## Nc1cc2n(n1)CCN(C(=O)c1cc3ccccc3[nH]1)C2 [Example 34, 5-(1H-indole-2-carbonyl)-4H,5H, 6H,7H-pyrazolo[1,5-a]pyrazin-2-amine]
  EC50: < 1000 nM

## O=C(Nc1cc2n(n1)CCN(C(=O)c1cc3c(Cl)c(F)ccc3[nH]1)C2)C1CCOC1 (stereo not shown) [Example 20, N-[5-(4-chloro-5-fluoro-1H-indole-2-carbonyl)-4H,5H,6H,7H-pyrazolo[1,5-a]pyrazin-2-yl]oxolane-3-carboxamide]
  EC50: < 1000 nM

## CCc1cccc2[nH]c(C(=O)N3CCn4nc(NS(=O)(=O)C5CC5)cc4C3)cc12 [Example 40, N-[5-(4-ethyl-1H-indole-2-carbonyl)-4H,5H,6H,7H-pyrazolo[1,5-a]pyrazin-2-yl]cyclopropanesulfonamide]
  EC50: < 1000 nM

## O=C(Nc1cc2n(n1)CCN(C(=O)c1cc3ccccc3[nH]1)C2)C1CCOCC1 [Example 18, N-[5-(1H-indole-2-carbonyl)-4H,5H,6H,7H-pyrazolo[1,5-a]pyrazin-2-yl]oxane-4-carboxamide]
  EC50: < 1000 nM

## CC(C)OC1(CNc2cc3n(n2)CCN(C(=O)c2cc4ccccc4[nH]2)C3)CCC1 [Example 78, 5-(1H-indole-2-carbonyl)-N-{[1-(propan-2-yloxy)cyclobutyl]methyl}-4H,5H,6H,7H-pyrazolo[1,5-a]pyrazin-2-amine]
  EC50: < 1000 nM

## COC1CCC(Nc2cc3n(n2)CCN(C(=O)c2cc4ccccc4[nH]2)C3)CC1 (stereo not shown) [Example 80, 5-(1H-indole-2-carbonyl)-N-(4-methoxycyclohexyl)-4H,5H,6H,7H-pyrazolo[1,5-a]pyrazin-2-amine]
  EC50: < 1000 nM

## CN1CC(C(=O)Nc2cc3n(n2)CCN(C(=O)c2cc4ccccc4[nH]2)C3)C1 [Example 70, N-[5-(1H-indole-2-carbonyl)-4H,5H,6H,7H-pyrazolo[1,5-a]pyrazin-2-yl]-1-methylazetidine-3-carboxamide]
  EC50: 1000 to 10000 nM

## O=C(Nc1cc2n(n1)CCN(C(=O)c1cc3ccccc3[nH]1)C2)C1CCNCC1 [Example 41, N-[5-(1H-indole-2-carbonyl)-4H,5H,6H,7H-pyrazolo[1,5-a]pyrazin-2-yl]piperidine-4-carboxamide Hydrochloride]
  EC50: < 1000 nM

## O=C(c1cc2ccccc2[nH]1)N1CCn2nc(NS(=O)(=O)C3CCCCC3)cc2C1 [Example 51, N-[5-(1H-indole-2-carbonyl)-4H,5H,6H,7H-pyrazolo[1,5-a]pyrazin-2-yl]cyclohexanesulfonamide]
  EC50: < 1000 nM

## O=C(c1cc2ccccc2[nH]1)N1CCn2nc(NC3(c4ccccc4)CC3)cc2C1 [Example 84, 5-(1H-indole-2-carbonyl)-N-(1-phenylcyclopropyl)-4H,5H,6H,7H-pyrazolo[1,5-a]pyrazin-2-amine]
  EC50: < 1000 nM

## O=C(c1cc2ccccc2[nH]1)N1CCn2nc(NC3CCOC3)cc2C1 (stereo not shown) [Example 1, 5-(1H-indole-2-carbonyl)-N-(oxolan-3-yl)-4H,5H,6H,7H-pyrazolo[1,5-a]pyrazin-2-amine]
  EC50: 1000 to 10000 nM

## O=C(c1cc2ccccc2[nH]1)N1CCn2nc(NC3(CO)CC3)cc2C1 [Example 92, (1-{[5-(1H-indole-2-carbonyl)-4H,5H,6H,7H-pyrazolo[1,5-a]pyrazin-2-yl]amino}cyclopropyl)methanol]
  EC50: < 1000 nM

## O=C(Nc1cc2n(n1)CCN(C(=O)c1cc3ccccc3[nH]1)C2)C1CCN(C2CC2)CC1 [Example 74, 1-cyclopropyl-N-[5-(1H-indole-2-carbonyl)-4H,5H,6H,7H-pyrazolo[1,5-a]pyrazin-2-yl]piperidine-4-carboxamide]
  EC50: < 1000 nM

## COCC1(S(=O)(=O)Nc2cc3n(n2)CCN(C(=O)c2cc4ccccc4[nH]2)C3)CC1 [Example 52, N-[5-(1H-indole-2-carbonyl)-4H,5H,6H,7H-pyrazolo[1,5-a]pyrazin-2-yl]-1-(methoxymethyl)cyclopropane-1-sulfonamide]
  EC50: < 1000 nM

## O=C(c1cc2ccccc2[nH]1)N1CCn2nc(NS(=O)(=O)C3CCOCC3)cc2C1 [Example 53, N-[5-(1H-indole-2-carbonyl)-4H,5H,6H,7H-pyrazolo[1,5-a]pyrazin-2-yl]oxane-4-sulfonamide]
  EC50: < 1000 nM

## Cc1nc(S(=O)(=O)Nc2cc3n(n2)CCN(C(=O)c2cc4ccccc4[nH]2)C3)cn1C [Example 48, [5-(1H-indole-2-carbonyl)-4H,5H,6H,7H-pyrazolo[1,5-a]pyrazin-2-yl]-1,2-dimethyl-1H-imidazole-4-sulfonamide]
  EC50: 1000 to 10000 nM

## CN1CCC(C(=O)Nc2cc3n(n2)CCN(C(=O)c2cc4ccccc4[nH]2)C3)C(F)(F)C1 (stereo not shown) [Example 87, 3,3-difluoro-N-[5-(1H-indole-2-carbonyl)-4H,5H,6H,7H-pyrazolo[1,5-a]pyrazin-2-yl]-1-methylpiperidine-4-carboxamide]
  EC50: < 1000 nM

## O=C(c1cc2ccccc2[nH]1)N1CCn2nc(NS(=O)(=O)C3CC3)cc2C1 [Example 5, N-[5-(1H-indole-2-carbonyl)-4H,5H,6H,7H-pyrazolo[1,5-a]pyrazin-2-yl]cyclopropanesulfonamide]
  EC50: < 1000 nM

## CC1Cn2nc(N)cc2CN1C(=O)c1cc2c(Cl)cccc2[nH]1 (stereo not shown) [Example 9, 5-(4-chloro-1H-indole-2-carbonyl)-6-methyl-4H,5H,6H,7H-pyrazolo[15-a]pyrazin-2-amine]
  EC50: < 1000 nM

## CC1Cn2nc(NC(=O)C3CCOC3)cc2CN1C(=O)c1cc2ccccc2[nH]1 (stereo not shown) [Example 10, N-[5-(1H-indole-2-carbonyl)-6-methyl-4H,5H, 6H,7H-pyrazolo[1,5-a]pyrazin-2-yl]oxolane-3-carboxamide]
  EC50: < 1000 nM

## CC(=O)N1CCC(C(=O)Nc2cc3n(n2)CCN(C(=O)c2cc4ccccc4[nH]2)C3)CC1 [Example 42, 1-acetyl-N-[5-(1H-indole-2-carbonyl)-4H,5H,6H,7H-pyrazolo[1,5-a]pyrazin-2-yl]piperidine-4-carboxamide]
  EC50: < 1000 nM

## Nc1cc2n(n1)CCN(C(=O)c1cc3c(Cl)cccc3[nH]1)C2 [Example 32, 5-(4-chloro-1H-indole-2-carbonyl)-4H,5H,6H,7H-pyrazolo[1,5-a]pyrazin-2-amine]
  EC50: < 1000 nM
